Data as given in ChEMBL document CHEMBL3046502, “In vitro antimicrobial and antitubercular studies of novel 6-substituted (pyrrolidin-1-yl)-2(1H)-pyridinones” (2012).
Values after ≈ are worked out from the molar mass of the structure shown.

Experiments:
Assay type in all cases: functional
Pseudomonas aeruginosa = assay: Antimicrobial activity against Pseudomonas aeruginosa MTCC 2488 by broth microdilution method
Escherichia coli = assay: Antimicrobial activity against Escherichia coli MTCC 442 by broth microdilution method
Aspergillus niger = assay: Antimicrobial activity against Aspergillus niger MTCC 282
Candida albicans = assay: Antimicrobial activity against Candida albicans MTCC 227
Streptococcus pyogenes = assay: Antimicrobial activity against Streptococcus pyogenes MTCC 443 by broth microdilution method
Staphylococcus aureus = assay: Antimicrobial activity against Staphylococcus aureus MTCC 96 by broth microdilution method
Aspergillus clavatus = assay: Antimicrobial activity against Aspergillus clavatus MTCC 1323
[1] = tested on: Mycobacterium tuberculosis; assay: Antimicrobial activity against Mycobacterium tuberculosis H37Rv; conditions: for MIC: Mycobacterium tuberculosis, H37Rv

Structure (SMILES) | MIC (Pseudomonas aeruginosa) | MIC (Escherichia coli) | MIC (Aspergillus niger) | MIC (Candida albicans) | MIC (Streptococcus pyogenes) | MIC (Staphylococcus aureus) | MIC (Aspergillus clavatus) | inhibition (INH) [1] | MIC [1]
COc1ccc(-c2cc(=O)n(-c3cccc(Cl)c3)c(N3CCCC3)c2/N=N/c2cc(Cl)ccc2Cl)cc1 | 500 µg/mL (≈ 903 µM) | 100 µg/mL (≈ 181 µM) | > 1000 µg/mL | 1000 µg/mL (≈ 1810 µM) | 500 µg/mL (≈ 903 µM) | 500 µg/mL (≈ 903 µM) | > 1000 µg/mL | 99% | 100 µg/mL (≈ 181 µM)
COc1ccc(-c2cc(=O)n(-c3cccc(Cl)c3)c(N3CCCC3)c2/N=N/c2ccc(Cl)cc2[N+](=O)[O-])cc1 | 500 µg/mL (≈ 886 µM) | 250 µg/mL (≈ 443 µM) | 200 µg/mL (≈ 354 µM) | 250 µg/mL (≈ 443 µM) | 250 µg/mL (≈ 443 µM) | 250 µg/mL (≈ 443 µM) | 200 µg/mL (≈ 354 µM) | 98% | 500 µg/mL (≈ 886 µM)
